Experimental data published in PubChem BioAssay (NCI).
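All cell lines were grown in 96-well plates and treated with compound for 48 hours. GI50 = concentration required for 50% inhibition of growth. The concentration for full growth arrest is given as TGI.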

How the values were obtained:
Assay in all cases: inhibition of tumour cell growth, NCI panel, 48 h
[1] = system: EKVX NSCLC
[2] = system: RXF 393 renal
[3] = system: CCRF-CEM leukemia
[4] = system: NCI-H460 lung
[5] = system: UO-31 renal
[6] = system: SK-MEL-2 melanoma
[7] = system: 786-0 renal
[8] = system: SR leukemia

Row | Structure (SMILES) | TGI [1] | TGI [2] | TGI [3] | TGI [4] | TGI [5] | TGI [6] | TGI [7] | TGI [8] | GI50 [1] | GI50 [2] | GI50 [3] | GI50 [4] | GI50 [5] | GI50 [6] | GI50 [7] | GI50 [8]
1 | COc1ccc(/C(Cl)=C(\C=O)c2ccc([N+](=O)[O-])cc2)cc1 | > 68.8 µM | 38.6 µM | 23.2 µM | > 100 µM | 56.2 µM | 41.3 µM | 31.6 µM |  |  |  |  |  |  |  |  | 
2 | CN(C)C(c1ccccc1)C(O)c1ccccc1 (centres undefined) | > 100 µM | > 100 µM | > 100 µM | > 100 µM | > 100 µM | > 100 µM | > 100 µM |  |  |  |  |  |  |  |  | 
3 | COC1=CC2(C=CC1=O)c1cc(OC)c(OC)cc1CCN2C(=O)c1ccccc1 (centres undefined) | > 100 µM | > 100 µM | > 100 µM |  | > 100 µM |  | > 100 µM |  |  |  |  |  |  |  |  | 
4 | Cc1ccc(-c2cc(=O)c3cc(C)c(C)c(C(=O)O)c3o2)cc1C | > 100 µM | > 100 µM | > 100 µM | > 100 µM | > 100 µM | > 100 µM | > 100 µM | > 100 µM |  |  |  |  |  |  |  | 
5 | O=C(/C=C/c1c(O)ccc2ccccc12)c1ccccc1 | > 100 µM | > 100 µM | > 100 µM | > 100 µM | > 100 µM | > 100 µM | > 100 µM | > 100 µM |  |  |  |  |  |  |  | 
6 | Fc1ccc(C2SCc3nc4ccccc4n32)cc1Cl (centres undefined) | 92.8 µM | 50 µM | 87.4 µM | > 100 µM | 43.5 µM |  | > 100 µM | > 100 µM |  |  |  |  |  |  |  | 
7 | CC(C)c1ccc(C(c2ccc(OCC(=O)O)cc2)c2ccc(C(C)C)cc(=O)c2O)c(O)c(=O)c1 | > 100 µM | 27.2 µM | 85.2 µM | 8.34 µM |  |  | 22 µM |  |  |  |  |  |  |  |  | 
8 | CCc1ccc(Nc2ccc([N+](=O)[O-])cc2[N+](=O)[O-])cc1 | > 100 µM | > 100 µM | > 100 µM | > 100 µM | > 100 µM | > 100 µM | > 100 µM |  |  |  |  |  |  |  |  | 
9 | CCCCCCC(=O)C/C(=N/NC(N)=S)C(=O)NC1C2CC3CC(C2)CC1C3 (centres undefined) | > 100 µM | > 100 µM | > 100 µM | > 100 µM | > 100 µM | > 100 µM | > 100 µM |  |  |  |  |  |  |  |  | 
10 | COc1cccc(N2C(=O)[C@H]3CC(C)c4c([nH]c5ccccc45)[C@H]3C2=O)c1 (some centres undefined) | > 100 µM | 38.8 µM | > 100 µM | > 100 µM | > 100 µM | > 100 µM | 50.5 µM |  |  |  |  |  |  |  |  | 
11 | CC1=N/C(=C\c2cccc([N+](=O)[O-])c2)C(=O)O1 | > 100 µM | > 100 µM | > 100 µM | > 100 µM | > 100 µM | > 100 µM | > 100 µM |  |  |  |  |  |  |  |  | 
12 | CCOc1ccc2c(c1)[n+]([O-])c(-c1nc3ccccc3s1)c(N)[n+]2[O-] | > 100 µM |  | > 100 µM | > 100 µM | 96.3 µM | > 100 µM | > 100 µM |  |  |  |  |  |  |  |  | 
13 | COc1cc2c(c(OC)c1)C1(CC(CC#N)C2)SCCS1 (centres undefined) |  | > 100 µM | > 100 µM | > 100 µM | > 100 µM | > 100 µM | > 100 µM |  |  |  |  |  |  |  |  | 
14 | COc1ccc2c3c(coc13)C(CCC(=O)O)CC2 (centres undefined) | > 100 µM | > 100 µM |  | > 100 µM |  |  | > 100 µM |  |  |  |  |  |  |  |  | 
15 | COc1ccc(CNc2nc3cc(C(F)(F)F)ccc3nc2C)cc1OC | 72.6 µM |  | > 100 µM | > 100 µM | 65.1 µM | 70.1 µM | 58.9 µM |  |  |  |  |  |  |  |  | 
16 | CC(=O)O.[Au].c1ccc([PH+](c2ccccc2)c2ccccc2)cc1 | 8.56 µM | 2.86 µM | 2.34 µM | 74.7 µM | 24.4 µM | 8.47 µM | 3.27 µM |  | 3.61 µM | 1.42 µM | 0.404 µM | 17.2 µM | 11.1 µM | 3.24 µM | 1.67 µM | 
17 | Cc1nc2ccccc2c(=O)n1-c1ccccc1F | > 100 µM | > 100 µM | > 100 µM | > 100 µM | > 100 µM | > 100 µM | > 100 µM |  |  |  |  |  |  |  |  | 
18 | OC/C=C(\I)CCCOCOCc1ccccc1 | > 100 µM | 72.3 µM | 46.1 µM | > 100 µM | > 100 µM | 47.7 µM | > 100 µM |  |  |  |  |  |  |  |  | 
19 | N.N.O=C([O-])P(=O)([O-])[O-].[Na+].[Pt+4] | > 100 µM | > 100 µM | > 100 µM | > 100 µM | > 100 µM | > 100 µM | > 100 µM |  | > 100 µM | > 100 µM | > 100 µM | > 100 µM | > 100 µM | > 100 µM | > 100 µM | 
20 | c1cc[c]([Pb]([c]2ccccc2)[c]2ccccc2)cc1 | 76.8 µM |  | > 100 µM | > 100 µM | 88.6 µM | 24 µM | 33.2 µM | 74.6 µM | 25.2 µM |  | 10.1 µM | 20.2 µM | 26.8 µM | 6.04 µM | 11.4 µM | 14.4 µM
21 | CC(=O)N1C/C(=C\c2ccc(N(C)C)cc2)C(=O)/C(=C/c2ccc(N(C)C)cc2)C1 |  | > 100 µM | > 100 µM |  | > 100 µM |  | > 100 µM | > 100 µM |  |  |  |  |  |  |  | 
22 | CCCCOC(=O)NC(=O)c1cn(C2CCCCC2)c(=O)[nH]c1=O | > 100 µM |  | > 100 µM | > 100 µM | 46.2 µM | > 100 µM | 40.1 µM |  |  |  |  |  |  |  |  | 
